# According to patent US10933053B2, “Treating infections with ceftolozane/tazobactam in subjects having impaired renal function” (MERCK SHARP & DOHME CORP., priority 2013, dated 2021):
# “And” between values parts separate entries of the source, which are not always exact repeats. Identical values can stand only once. Like-named read-outs stand apart in the source and are kept apart here.
# Columns and labels:
# [1] = Binding to human plasma proteins; assay type: in vitro ADME; settings: human, plasma; value used in Monte Carlo simulation; read-out: unbound fraction (Fu)
# human plasma proteins = assay: Binding to human plasma proteins; assay type: in vitro ADME
# [2] = design: species or system human
# Excerpt: Phoenix™ Non Linear Mixed Effects (NLME) version 1.2 (Pharsight Corporation, Certara USA, Inc., 9666 Olive Blvd., Suite 425, St. Louis, Mo. 63132 USA) with the extended least squares first order conditional estimation (FOCE-ELS) was used for population PK modeling and SAS® 9.3 (SAS Institute Inc., 100 SAS Campus Drive, Cary, N.C. 27513-2414, USA) with finite element method (FEM) was used for Monte Carlo simulation. R (2.15.0) and SAS® 9.3 were used for data management, statistical summaries and table/figures generation.
# No other structural model was further tested unless necessary. Ceftolozane or tazobactam plasma concentration-time data with hemodialysis were then included and hemodialysis was tested as a covariate effect on both clearance and volume of distribution for the central compartment. The final model was selected based on the stability of the model, reliability and interpretability of the parameter estimates and the goodness-of-fit plots.
# The population PK model for ceftolozane was developed via a 2-step process. First, the ceftolozane plasma concentrations without hemodialysis (first dose) were modeled and best described with a 2-compartment disposition model (FIG. 15) plus a proportional residual error model. The between-subject variability was reliably estimable on all four PK parameters CL, Vc, CL2 and V2. When the ceftolozane plasma concentrations following the second dose with hemodialysis were included, the above model, with the addition of a dichotomous covariate and a between-subject variability for the effect of hemodialysis, was the best to fit the combined data.
# Similar to ceftolozane, tazobactam plasma concentrations without hemodialysis (first dose) were first modeled and well described with a 2-compartment disposition model (FIG. 15) plus a proportional residual error model. The between-subject variability was reliably estimable on all four PK parameters CL, Vc, CL2 and V2. When the tazobactam plasma concentrations following the second dose were included, the model with hemodialysis evaluated as a dichotomous covariate with a between-subject variability was the best to fit all the combined data. […] (17)
# Ceftolozane/tazobactam plasma concentrations collected from 6 patients with ESRD following a single dose without hemodialysis and a second dose with hemodialysis were used to develop a population PK model (Phoenix™ Non Linear Mixed Effects [NLME]).
# A 2-compartment disposition model was used to fit the ceftolozane or tazobactam plasma concentration-time data without hemodialysis and to test the between-subject variability and residual variability. Ceftolozane or tazobactam plasma concentration-time data with hemodialysis were then included and hemodialysis was tested as a covariate effect on both clearance and volume of distribution for the central compartment.
# [3] = threshold = 1/2 of the TOL/TAZ MIC; cited from earlier work
# clinical [4] = settings: human, in vivo
# Excerpt: The most common adverse reactions (≥5% in either indication) occurring in patients receiving CXA-201 were nausea, headache and diarrhea. Table 3 lists adverse reactions occurring in ≥1.0% of patients receiving CXA-201 in Phase 3 clinical trials.
# The majority of adverse events were mild to moderate in severity, and the incidence of treatment-limiting adverse events was <2% in both treatment groups. Epidemiology and susceptibility of organisms isolated from patients with cUTI.
# clinical [5] = settings: both, human, in vivo, 750 mg
# Description: This was a Phase 1, multicenter, prospective, open-label study of 750 mg ceftolozane/tazobactam (as CXA-201) administered IV in male and female adult subjects with severe renal impairment (estimated CLCR<30 mL/min) and subjects with end-stage renal disease (ESRD) on hemodialysis (HD). The primary objective of the study was to determine the PK profile of ceftolozane/tazobactam in subjects with severe renal impairment and subjects with ESRD on HD and to determine the effect of HD on the clearance of ceftolozane/tazobactam.
# Subjects with severe renal impairment received a single IV 1-hour infusion of 750 mg ceftolozane/tazobactam on Day 1. […] Subjects in this cohort received an IV dose of 750 mg ceftolozane/tazobactam as a 1 hour infusion immediately after their first HD session on Day 1 (post dialysis, approximately 72 hours prior to the next HD session) and a second dose of ceftolozane/tazobactam approximately 2 hours before their second HD session on Day 4 of the study. Infusion of ceftolozane/tazobactam was completed approximately 1 hour before the start of HD.
# Subjects in both cohorts had urine (if not anuric) and plasma samples collected for determination of levels of ceftolozane, tazobactam and the M1 metabolite of tazobactam; subjects in the ESRD on HD cohort also had dialysate fluid samples collected for PK assessment. Plasma, urine, and dialysate levels of ceftolozane, tazobactam, and its metabolite M1 collected over a prespecified interval were determined by LC/MS/MS assay.
# P. aeruginosa = settings: neutropenic murine-thigh infection model; cited from earlier work
Compound,fraction unbound [1],BSV % (RSE %) of CL ([2]; ESRD),BSV % (RSE %) of V2 ([2]; ESRD),BSV % (RSE %) of log-scale coefficient of hemodialysis on CL ([2]; ESRD),"Log-scale coefficient of hemodialysis on CL, mean estimate ([2]; ESRD)","Log-scale coefficient of hemodialysis on Vc, mean estimate ([2]; ESRD)",increase of CL by HD ([2]; ESRD) [fold],increase of Vc by HD ([2]; ESRD) [fold],"V2, volume of distribution for peripheral compartment, mean estimate ([2]; human)",apparent terminal half-life ([2]; human),apparent volume of distribution for the central compartment with hemodialysis ([2]; human),clearance with hemodialysis ([2]; human),half-life ([2]; human),also measured
"C[C@]1(Cn2ccnn2)[C@H](C(=O)O)N2C(=O)C[C@H]2S1(=O)=O [Tazobactam, tazobactam]",0.7,142 (29.3) %,24.3 (39.8) %,29 (31.4) %,1.89 and 1.9,0.434 and 0.43,6.6,1.5,6.55,about 4 hours,about 16 L,about 20 L/hr,about 1 hours,binding to human plasma proteins (human plasma proteins): ~30%; BSV % (RSE %) of Vc ([2]; ESRD): 398 (34.3) %; free-drug % T>threshold target [3]: 65.9
"Cn1c(N)c(NC(=O)NCCN)c[n+]1CC1=C(C(=O)O)N2C(=O)[C@@H](NC(=O)/C(=N\OC(C)(C)C(=O)O)c3nsc(N)n3)[C@H]2SC1 [Ceftolozane, (6R,7R)-3-[(5-amino-4-{[(2-aminoethyl)carbamoyl]amino}-1-methyl-1H-pyrazol-2-ium-2-yl)methyl]-7-({(2Z)-2-(5-amino-1,2,4-thiadiazol-3-yl)-2-[(1-carboxy-1-methylethoxy)imino]acetyl}amino)-8-oxo-5-thia-1-azabicyclo[4.2.0]oct-2-ene-2-carboxylate]",0.79,52.2 (29.2) %,48.4 (29.9) %,69.6 (29.8) %,4.09 and 4.1,1.54 and 1.5,60,4.7,11.8,about 40 hours,about 28 L,about 20 L/hr,about 2 hours,"AUC (clinical [4]): 1100 µg·h/mL; daily AUC previously shown to be safe and tolerable in humans (clinical [4]): 1100 µg·h/mL; AUC(0-inf) (clinical [5]): 537 µg·h/mL; AUC(0-t) (clinical [5]): 511 µg·h/mL; Vd (clinical [5]): 13.8 L; clearance (clinical [5]): 16.7 mL/min; half-life (clinical [5]): 11.1 h; BSV % (RSE %) of CL2 ([2]; ESRD): 35.9 (41.9) %; BSV % (RSE %) of log-scale coefficient of hemodialysis on Vc ([2]; ESRD): 40.0 (34.7) %; Vc, volume of distribution for central compartment, mean estimate ([2]; human): 6 FIXED L; free-drug % T>MIC target associated with 1-log10 CFU reduction from baseline (bactericidal, 1-log kill) (P. aeruginosa): 32.2%; free-drug % T>MIC target associated with net bacterial stasis (P. aeruginosa): 24.8%"
